Entries after “also recorded” stand apart in the source; their conditions may differ. Read-outs that look alike come from different tables or passages of the source.
Columns and labels:
[1] = target: T1, ERα (Homo sapiens, UniProt P03372); experiment: Luciferase-reporter assay for antagonist activity in the presence of E2, HeLa cells; assay type: cell-based; conditions: for ERα antagonist activity against E2-induced transcription (in words): 1 pM to 10 μM compound in a solution of E2 (1 nM); for reduction of E2-mediated ERα activity: highest concentration, 10 μM
T1 construct: expressed in transfected cells; host or cells: HeLa cells
T1 sequence (P03372 1-595): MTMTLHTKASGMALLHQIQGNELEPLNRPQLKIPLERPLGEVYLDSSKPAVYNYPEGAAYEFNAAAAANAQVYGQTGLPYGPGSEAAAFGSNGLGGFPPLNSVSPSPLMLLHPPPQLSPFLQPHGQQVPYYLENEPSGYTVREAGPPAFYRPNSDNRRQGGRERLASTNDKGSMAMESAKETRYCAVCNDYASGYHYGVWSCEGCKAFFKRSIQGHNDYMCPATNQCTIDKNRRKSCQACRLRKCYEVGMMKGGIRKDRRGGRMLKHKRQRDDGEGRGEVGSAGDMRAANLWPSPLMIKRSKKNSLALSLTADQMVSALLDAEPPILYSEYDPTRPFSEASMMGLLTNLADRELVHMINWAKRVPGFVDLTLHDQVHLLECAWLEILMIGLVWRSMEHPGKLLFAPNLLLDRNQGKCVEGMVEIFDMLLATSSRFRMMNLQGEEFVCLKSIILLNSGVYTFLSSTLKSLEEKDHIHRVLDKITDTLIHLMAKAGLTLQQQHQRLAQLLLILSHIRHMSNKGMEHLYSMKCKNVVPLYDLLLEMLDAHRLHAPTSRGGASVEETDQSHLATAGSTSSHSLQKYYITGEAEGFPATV
Experimental: (§1) HeLa cells were maintained in Eagle’s minimum essential medium (MEM; Nissui Pharmaceutical Co., Ltd, Tokyo, Japan) supplemented with 10% (v/v) foetal bovine serum treated with dextran-coated charcoal at 37 °C under 5% CO2. To analyse the agonist activity, HeLa cells were incubated at a density of 5 × 10^5 cells per 60-mm dish for 24 h, followed by transfection of 3 μg of the reporter plasmid (3 × ERE/pGL4.23) and 1 μg of the ERα expression plasmid (ERα/pcDNA3.1) using Lipofectamine LTX reagent (Thermo Fisher Scientific, Waltham, MA, USA) according to the manufacturer’s instructions. After 24 h, cells were harvested, suspended in Eagle’s MEM, and seeded into 96-well plates at 5 × 10^4 cells/well, followed by treatment with a series of the test compounds diluted with 1% bovine serum albumin (BSA)/PBS (v/v) to prepare different concentrations (0–10 μM). After a 24-h incubation, luciferase activity was measured using a Luciferase Assay system (Promega, Madison, WI, USA) according to the manufacturer’s instructions. Briefly, cells were lysed using reporter lysis buffer (Promega), and luminescence was measured using a Wallace 1420 ARVOsx multilabel counter (PerkinElmer). Cells treated only with 1% BSA/PBS were used as a vehicle control. Each assay was performed in triplicate and repeated at least three times.
To evaluate antagonistic activity, we examined serial concentrations of test compounds (0–10 μM, final) in the presence of 1 nM or 10 nM concentrations of E2, which normally induces basal levels of ERα-related transcriptional activity.

[2] = target: T1, ERα; experiment: Luciferase-reporter assay for agonist activity in transiently transfected HeLa cells; assay type: cell-based; conditions: for ERα agonist / transcriptional activity (in words): reporter-gene assay, 0.1-10 μM
Experimental: as §1, with “Briefly, cells were lysed using reporter lysis buffer (Promega), and luminescence was measured using a Wallace 1420 ARVOsx multilabel counter (PerkinElmer).” left out

[3] = target: T2, ERα (Homo sapiens, UniProt P03372); experiment: Competitive binding assay using [3H]E2 against GST-fused ERα LBD
T2 construct: the ERα LBD was amplified by polymerase chain reaction and subcloned into the pGEX-6P-1 vector; made in house; host or cells: Escherichia coli BL21α
T2 sequence (P03372 311-547 limits assumed): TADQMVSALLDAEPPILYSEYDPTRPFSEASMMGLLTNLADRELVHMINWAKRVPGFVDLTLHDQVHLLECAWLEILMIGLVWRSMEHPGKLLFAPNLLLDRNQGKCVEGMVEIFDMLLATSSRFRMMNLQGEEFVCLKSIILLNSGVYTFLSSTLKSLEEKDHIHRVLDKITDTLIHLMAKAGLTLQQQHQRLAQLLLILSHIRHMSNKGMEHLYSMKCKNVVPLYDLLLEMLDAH
From the text: The ERα cDNA clone was purchased from OriGene Technologies, Inc. (Rockville, MD, USA). For construction of the expression plasmid, the ERα LBD was amplified by polymerase chain reaction and subcloned into the pGEX-6P-1 vector (GE Healthcare, Chicago, IL, USA) to obtain as a GST-fused protein. The GST-fused ERα -LBD was expressed in Escherichia coli BL21α cells and purified using Glutathione-Sepharose 4B (GE Healthcare), followed by gel filtration on a Sephadex G-10 column (GE Healthcare).
We performed the radioligand binding assays for ERα according to previously reported by method. […] GST-ERα-LBD (20 ng) was incubated with a series of [^3H]E2 (0.1–30 nM) in a total volume of 100 μL of binding buffer [10% glycerol, 10 mM Tris, 1 mM EGTA, 1 mM EDTA, 1 mM sodium vanadate (V), 0.5 mM phenylmethylsulfonyl fluoride, and 0.2 mM leupeptin (pH 7.4)] for 2 h at 20 °C in order to estimate total binding. Specific binding was calculated by subtracting the nonspecific binding determined by addition of 10 μM non-radiolabeled E2 to another set of working solutions from the observed total binding. After incubation, free radioligand was removed by addition and incubation of 100 μL 0.4% dextran-coated charcoal (Sigma-Aldrich) in phosphate-buffered saline (PBS; pH 7.4) on ice for 10 min. After centrifugation for 10 min at 15,000 rpm, the radioactivity of each supernatant was measured using a liquid scintillation counter (LS6500; Beckman Coulter, Fullerton, CA, USA). The data of the calculated specific binding of [^3H]E2 were assessed by Scatchard plot analysis.
The binding affinities of the test compounds were evaluated by competitive binding assays. Each chemical was dissolved in DMSO to prepare a 1.0-mM stock solution, followed by subsequent incubation of serial dilutions (1 pM to 10 μM) with GST- ERα-LBD (20 ng) and [^3H]E2 (5 nM, final) for 2 hrs at 20 °C to assess their ability to hinder the binding of [^3H]E2. Free radioligand was absorbed by 0.4% dextran-coated charcoal for the saturation binding assay and removed by the vacuum filtration system using a 96-well filtration plate (MultiScreenHTS HV; […] pore size; Merck KGaA, Darmstadt, Germany). The radioactivities of the eluents were measured using a TopCount NXT system (PerkinElmer) for 3 min/well.

[4] = system: oestrogen receptors (ERs); conditions: cited from earlier work
[5] = system: adult male mouse offspring; conditions: in utero exposure to 2 μg/kg/day or 20 μg/kg/day; cited from earlier work
[6] = contaminant of industrial BPA; cited from earlier work
[7] = [3H]17β-oestradiol radioligand (5 nM), GST-ERα-LBD, mean ± SE, read-out: Binding affinity (IC50)
[8] = [3H][…] radioligand (5 nM), GST-ERα-LBD, mean ± SE, read-out: Binding affinity (IC50)

SMILES	ERα antagonist activity against E2-induced transcription (in words) [1]	reduction of E2-mediated ERα activity [1]	ERα agonist / transcriptional activity (in words) [2]	IC50 [3, 7]	further results
CC(C)(c1ccc(O)cc1)c1cccc(C(C)(C)c2ccc(O)cc2)c1 [compound 7, bisphenol M]	inhibited the agonist activity of 1 nM E2 in a dose-dependent manner	up to 90%	weak transcriptional activity		ERα agonist / transcriptional activity (in words) ([2]; listed as BPM): almost no ERα-specific transcriptional activity; IC50 [3]: 56.8 ± 11.7 nM
CC(C)(c1ccc(O)cc1)c1ccc(O)cc1 [compound 21, bisphenol A]			apparent agonistic activity		affinity for ERs weaker than 17β-oestradiol (E2) [4]: > 1,000 fold; effect on prostate in adult male offspring (in words) [5]: increases prostate size and weight
CC(C)(c1ccc(O)cc1)c1ccc(C(C)(C)c2ccc(O)cc2)cc1 [compound 11, bisphenol P]	inhibited the agonist activity of 1 nM E2 in a dose-dependent manner	up to 90%	weak transcriptional activity	176 ± 35 nM	ERα agonist / transcriptional activity (in words) ([2]; listed as BPP): almost no ERα-specific transcriptional activity
Cc1cc(C(c2ccccc2O)c2cc(C)c(O)c(C)c2C)c(C)c(C)c1O [compound 3, 4,4′-(2-hydroxybenzylidene)-bis(2,3,6-trimethylphenol)]			apparent agonistic activity	12.3 ± 7.25 nM	
Oc1ccc(C(=C(Cl)Cl)c2ccc(O)cc2)cc1 [compound 1, bisphenol C]	did not observe any antagonistic activity		apparent agonistic activity		transcriptional activity relative to that of E2 ([2]; ERα reporter-gene assay): ~ 60%; IC50 [3, 8]: 2.81 ± 0.61 nM
CC(C)CC(C)(c1ccc(O)cc1)c1ccc(O)cc1 [compound 2, 4,4′-(1,3-dimethylbuthylidene)bisphenol]					estrogenic activity higher than laboratory grade BPA [6]: 8 fold
CC(C)(c1ccc(O)cc1)c1ccc(C(C)(c2ccc(O)cc2)c2ccc(O)cc2)cc1 [compound 10, α,α,α′-tris(4-hydroxyphenyl)-1-ethyl-4-isopropylbenzene]	inhibited the agonist activity of 1 nM E2 in a dose-dependent manner	up to 90%	weak transcriptional activity; also recorded: almost no ERα-specific transcriptional activity	61.7 ± 10.4 nM	
Oc1ccc(C2(c3ccc(O)cc3)CCCCC2)cc1 [compound 8, bisphenol Z]			apparent agonistic activity		IC50 [3, 8]: 56.9 ± 0.6 nM
Cc1cc(C(C)(C)c2ccc(C(C)(C)c3cc(C)c(O)c(C)c3)cc2)cc(C)c1O [compound 18, α,α′-bis(4-hydroxy-3,5-dimethylphenyl)-1,4-diisopropylbenzene]	inhibited the agonist activity of 1 nM E2 in a dose-dependent manner	up to 90%	weak transcriptional activity	733 ± 628 nM	
CC1(C)CC2(CC(C)(C)c3ccc(O)cc3O2)Oc2cc(O)ccc21 [compound 16, spirobicromane]	inhibited the agonist activity of 1 nM E2 in a dose-dependent manner	up to 90%	weak transcriptional activity	366 ± 20 nM	
Nc1cc(C(c2ccc(O)c(N)c2)(C(F)(F)F)C(F)(F)F)ccc1O [compound 15, 2,2-bis(3-amino-4-hydroxyphenyl)hexafluoropropane]			apparent agonistic activity	334 ± 112 nM	
CCCCC(CC)C(c1ccc(O)cc1)c1ccc(O)cc1 (centres unmarked) [compound 4, 4,4-(2-ethylhexylidene)bisphenol]			apparent agonistic activity	18.5 ± 6.86 nM	

— publication PMC6616570, “Discovery of novel oestrogen receptor α agonists and antagonists by screening a revisited privileged structure moiety for nuclear receptors” (Scientific Reports, 2019)
